Data: patent publication US20260035338A1, “AMINO LIPID COMPOUND AND LIPID NANOPARTICLE FOR DELIVERING BIOACTIVE INGREDIENT” (SHENZHEN SHENXIN BIOTECHNOLOGY CO., LTD., priority 2022, published 2026)

Legend:
[1] = test system: immune cell populations in the spleen and PBMC; experiment: Delivery efficiency of eGFP mRNA LNP to immune cell populations in spleen and peripheral blood (flow cytometry); format: in vivo; conditions: eGFP mRNA encapsulating LNP, intravenous, C57BL/6 mice, 12 hours, flow cytometry (FIG. 6 to 7)
Protocol: C57BL/6 mice (3 mice per group) were intravenously injected with eGFP mRNA encapsulating LNP. After 12 hours, the mice were dissected, and the spleen and peripheral blood, were collected to prepare single-cell suspensions of various tissues and organs. After blocking with Fc blocking antibodies and surface staining with fluorescent-labeled antibodies, flow cytometry was conducted to analyze the expression levels of eGFP in various immune cell populations to confirm the delivery efficiency of lipid nanoparticles comprising different amino lipid compounds to immune cell populations in different tissues and organs.
“Blank” in FIG. 6 and FIG. 7 refers to the control group injected with 100 μL Tris buffer.

BALB/c mice = experiment: In vivo delivery of Fluc mRNA-encapsulating LNP formulations, luciferase signal by In Vivo Imaging System (IVIS); conditions: tail vein injection (IV) 70 μL, female BALB/c mice, 6 hours after injection; for Average number of photons (Total in-vivo flux): LNP formulation encapsulating Fluc mRNA (Lipid:DSPC:CHO-HP:M-DMG-2000 48:10:40.5:1.5); for Average number of photons (Liver) / Average number of photons (Spleen): LNP formulation encapsulating Fluc mRNA
Protocol: Animal preparation: Female BALB/c mice of 6-8 weeks old were selected and raised in an SPF grade breeding room. Animal testing was conducted in strict accordance with the guidelines of national health institutions and animal ethics requirements.
In vivo Delivery: prior to injection of the test LNP formulation, the LNP formulation was gently and repeatedly inverted to thoroughly mix the sample of the formulation. A corresponding amount of the LNP formulation was aspirated with a 1 ml insulin syringe, and the LNP formulation was injected by tail vein injection (IV), with 3 mice in duplicate per formulation. Each mouse was injected with 70 μL of the corresponding LNP formulation encapsulating the luciferase mRNA (Fluc mRNA) prepared in Experimental Example 1.
6 hours after injection of LNP formulations, mice were injected with 200 μL D-Luciferin luciferase developing substrate (Catalog No. 122799; Manufacturer: Perkin Elmer). After the substrate was injected, the mice were anesthetized with isoflurane inhalation, and the injection time of luciferase developing substrate was recorded.
The encapsulation efficiency of the lipid nanoparticle encapsulating luciferase mRNA (Fluc mRNA) with a representative amino lipid compound and the fluorescence expression intensity induced by the same are shown in Table 4, with the LNP formulation containing SM-102, 1001 or ALC-0315 as a control LNP formulation. The preparation method of the control LNP formulation was basically the same as that of the LNP formulations in Experimental Example 1, with the difference lying in that the amino lipid compounds of the present disclosure were replaced with SM-102, 1001 or ALC-0315 in the preparation of the control LNP formulation.

Compound | delivery efficiency to immune cell populations (eGFP expression) [1] | Average number of photons (Total in-vivo flux) (BALB/c mice) | Average number of photons (Liver) (BALB/c mice) | Average number of photons (Spleen) (BALB/c mice)
CCCCCCOC(CCCOC(=O)CCCCC(CCCCC(=O)OCCCC(OCCCCCC)OCCCCCC)OC(=O)OCCCN(CC)CC)OCCCCCC [compound 2042] | different delivery preferences to different immune cells |  |  | 
CCCCCCOC(CCCOC(=O)CCCCCC(CCCCCC(=O)OCCCC(OCCCCCC)OCCCCCC)OC(=O)OCCCN(CC)CC)OCCCCCC [compound 2043] | different delivery preferences to different immune cells | 1.64E+08 | 2.59E+07 | 1.07E+07
CCCCCCOC(CCCOC(=O)CCCCCCCCC(CCCCCCCCC(=O)OCCCC(OCCCCCC)OCCCCCC)OC(=O)OCCC1CCCN1C)OCCCCCC (centres unmarked) [compound 398] |  | 1.79E+08 | 2.78E+07 | 6.36E+05
CCCCCCCCOC(CCCOC(=O)CCCCCCCCC(CCCCCCCCC(=O)OCCCC(OCCCCCCC)OCCCCCCC)OC(=O)OCCCN(CC)CC)OCCCCCCCC (centres unmarked) [compound 868] |  | 3.04E+07 | 5.35E+06 | 1.74E+05
CCCCC/C=C\C/C=C\CCCCCCCC(=O)OCC(COC(=O)OCCCC(OCCCCCCCC)OCCCCCCCC)COC(=O)OCCCN(CC)CC (centres unmarked) [compound 1246] |  | 4.92E+07 | 6.85E+06 | 3.83E+06
CCCCCCOC(CCCOC(=O)OCCCCCCCCCC(CCCCCCCCCOC(=O)OCC(OCCCCCC)OCCCCCC)OC(=O)OCCCN(CC)CC)OCCCCCC (centres unmarked) [compound 457] |  | 1.43E+07 | 1.55E+06 | 2.70E+06
CCCCCCOC(CCCOC(=O)CCCCCCC(CCCCCCC(=O)OCCCC(OCCCCCC)OCCCCCC)OC(=O)OCCCN(C)C)OCCCCCC [compound 2040] |  | 1.53E+08 | 2.97E+07 | 1.11E+07
CCCCCCOC(CCC(=O)OCC(COC(=O)CCC(OCCCCCC)OCCCCCC)COC(=O)OCCCN(C)C)OCCCCCC [compound 2021] |  | 4.49E+06 | 1.19E+06 | 1.04E+06
CCCCCCC#CCCOC(=O)CCCCCCCOC(=O)CCCCCCCCC(CCCCCCCCC(=O)OCCCC(OCCCCCC)OCCCCCC)OC(=O)OCCCN(CC)CC (centres unmarked) [compound 437] |  | 1.66E+07 | 2.66E+06 | 2.62E+06
CCCCC/C=C\C/C=C\CCCCCCCC(=O)OCC(COC(=O)CCC(OCCCCCCCC)OCCCCCCCC)COC(=O)OCCCN(CC)CC (centres unmarked) [compound 1001, reference compound] |  | 9.68E+07 | 9.38E+06 | 1.65E+07
CCCCCCCOC(CCCOC(=O)CCCCCCCCC(CCCCCCCCC(=O)OCCCC(OCCCCCC)OCCCCCC)OC(=O)OCCCN(CC)CC)OCCCCCCC (centres unmarked) [compound 865] |  | 4.34E+07 | 8.60E+06 | 3.25E+05
CCCCCCOC(CCCOC(=O)CCCCCCCCC(CCCCCCCCC(=O)OCCCC(OCCCCC)OCCCCC)OC(=O)OCCCN(CC)CC)OCCCCCC (centres unmarked) [compound 861] |  | 6.67E+07 | 1.17E+07 | 3.52E+05
CCCCCCCCC(CCCCCCCC)OC(=O)CCCCCCCOC(=O)CCCCCCCCC(CCCCCCCCC(=O)OCCCC(OCCCCCC)OCCCCCC)OC(=O)OCCCN(CC)CC (centres unmarked) [compound 434] |  | 2.50E+07 | 3.52E+06 | 1.40E+05
CCCCCCCCCOC(CCCOC(=O)CCCCCCCCC(CCCCCCCCC(=O)OCCCC(OCCCCCCCCC)OCCCCCCCCC)OC(=O)OCCCN(C)C)OCCCCCCCCC [compound 849] |  | 2.67E+07 | 4.12E+06 | 1.82E+05
CCCCCCOC(CCCOC(=O)CCCCCCCCC(CCCCCCCCC(=O)OCCCC(OCCCCCC)OCCCCCC)OC(=O)NCCCN1CCCCC1C)OCCCCCC (centres unmarked) [compound 399] |  | 9.00E+07 | 1.96E+07 | 2.05E+06
CCCCCCCCC(=O)OCCCCCCCCOC(=O)CCCCCCCCC(CCCCCCCCC(=O)OCCCC(OCCCCCC)OCCCCCC)OC(=O)OCCCN(CC)CC (centres unmarked) [compound 433] |  | 2.56E+07 | 3.83E+06 | 2.44E+05
CCCCCCOC(CCCNC(=O)OCCCCCCCC(CCCCCCCCCOC(=O)NCC(OCCCCCC)OCCCCCC)OC(=O)OCCCN(CC)CC)OCCCCCC (centres unmarked) [compound 459] |  | 3.42E+07 | 5.09E+06 | 2.52E+06
CCCCCCCCCOC(CCCOC(=O)CCCCCCCCC(CCCCCCCCC(=O)OCCCC(OCCCCC)OCCCCC)OC(=O)OCCCN(CC)CC)OCCCCCCCCC (centres unmarked) [compound 864] |  | 3.66E+07 | 6.58E+06 | 2.33E+05
CCCCCCCCOC(CCCOC(=O)CCCCCCCCC(CCCCCCCCC(=O)OCCCC(OCCCCC)OCCCCC)OC(=O)OCCCN(CC)CC)OCCCCCCCC (centres unmarked) [compound 863] |  | 4.43E+07 | 7.13E+06 | 2.88E+05
CCCCCCOC(CCCOC(=O)CCCCCCCCC(CCCCCCCCC(=O)OCCCC(OCCCCCC)OCCCCCC)NC(=O)OCCCN(CC)CC)OCCCCCC [compound 393] |  | 2.80E+08 | 5.44E+07 | 1.00E+07
CCCCCCOC(CCCOC(=O)CCCCCCCCC(CCCCCCCCC(=O)OCCCC(OCCCCCC)OCCCCCC)OC(=O)OCC1CCCN(C)C1)OCCCCCC (centres unmarked) [compound 416] |  | 2.16E+08 | 5.13E+07 | 3.99E+06
CCCCCCOCCCCOC(=O)CCCCCCCCC(CCCCCCCCC(=O)OCCCC(OCCCCCC)OCCCCCC)OC(=O)OCCCN(CC)CC (centres unmarked) [compound 440] |  | 2.30E+08 | 3.22E+07 | 2.14E+06
CCCCCCCOC(CCCOC(=O)CCCCCCCCC(CCCCCCCCC(=O)OCCCC(OCCCCCCC)OCCCCCCC)OC(=O)OCCCN(C)C)OCCCCCCC [compound 490] |  | 2.65E+07 | 3.68E+06 | 5.06E+05
CCCCCCOC(CCCCCOC(=O)CCCCCCCCC(CCCCCCCCC(=O)OCCCCCC(OCCCCCC)OCCCCCC)OC(=O)OCCCN(CC)CC)OCCCCCC [compound 389] |  | 2.99E+07 | 4.14E+06 | 8.58E+04
CCCCCOC(CCCCCOC(=O)CCCCCCCCC(CCCCCCCCC(=O)OCCCCCC(OCCCCC)OCCCCC)OC(=O)OCCCN(CC)CC)OCCCCC [compound 390] |  | 5.23E+07 | 7.04E+06 | 3.84E+05
